Test results published in ChEMBL document CHEMBL1137564, “Substituted 2-pyrrolinone inhibitors of HIV-1 integrase” (Bioorg Med Chem Lett, 2007).
pIC50: −log10 of the molar value.

Assays:
[1] = target: T1, Human immunodeficiency virus type 1 integrase (Human immunodeficiency virus 1, UniProt Q7ZJM1); test: Inhibition of HIV1 integrase 3'-end processing activity
[2] = target: T1, Human immunodeficiency virus type 1 integrase; test: Inhibition of HIV1 integrase strand transfer activity
[3] = target: T1, Human immunodeficiency virus type 1 integrase; test: Inhibition of HIV1 integrase strand transfer activity in presence of Mg2+
[4] = target: T1, Human immunodeficiency virus type 1 integrase; test: Inhibition of HIV1 integrase 3'-end processing activity in presence of Mg2+
[5] = target: Human immunodeficiency virus type 1 integrase (Human immunodeficiency virus 1) (UniProt Q7ZJM1); test: Selectivity for HIV1 integrase strand transfer activity over 3'-end processing activity in presence of Mg2+
Chain of Human immunodeficiency virus type 1 integrase (Human immunodeficiency virus 1) (Q7ZJM1 as listed by the source): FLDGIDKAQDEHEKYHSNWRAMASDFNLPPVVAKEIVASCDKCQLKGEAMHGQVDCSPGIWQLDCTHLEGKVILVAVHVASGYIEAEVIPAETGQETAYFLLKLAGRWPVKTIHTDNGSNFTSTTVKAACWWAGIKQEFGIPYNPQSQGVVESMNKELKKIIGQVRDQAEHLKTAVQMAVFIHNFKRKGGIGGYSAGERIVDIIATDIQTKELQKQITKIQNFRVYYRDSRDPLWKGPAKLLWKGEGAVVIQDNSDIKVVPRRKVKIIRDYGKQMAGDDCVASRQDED

T1 sequence (Q7ZJM1 whole entry): as the sequence (Q7ZJM1 as listed by the source) above

Row | Structure (SMILES) | pIC50 [1] | pIC50 [2] | pIC50 [3] | pIC50 [4] | Ratio IC50 [5]
1 | COc1ccc(C2C(C(=O)c3ccc(Br)cc3)=C(O)C(=O)N2c2cccc(C(F)(F)F)c2)cc1OC (stereo unspecified) | 4.33 | 4.59 |  |  | 
2 | O=C(C1=C(O)C(=O)N(c2nc3ccccc3s2)C1c1ccccn1)c1ccc(Cl)cc1 (stereo unspecified) | < 4.00 | 4.08 |  |  | 
3 | Cc1ccc(C(=O)C2=C(O)C(=O)N(c3ncc(S(=O)(=O)c4ccc([N+](=O)[O-])cc4)s3)C2c2cccc(Cl)c2)cc1 (stereo unspecified) | 4.57 | 5.10 | 5.21 | < 4.00 | 
4 | O=C(C1=C(O)C(=O)N(c2nc3ccccc3s2)C1c1cccnc1)c1ccc(Cl)cc1 (stereo unspecified) | < 4.00 | 4.05 |  |  | 
5 | Cc1ccc(C2C(C(=O)c3ccc(Cl)cc3)=C(O)C(=O)N2CC(=O)O)cc1 (stereo unspecified) | 4.08 | 4.16 |  |  | 
6 | CC(C)(C)c1ccc(C2C(C(=O)c3ccc(F)cc3)=C(O)C(=O)N2c2nncs2)cc1 (stereo unspecified) | 4.19 | 4.37 |  |  | 
7 | COc1ccc(C(=O)C2=C(O)C(=O)N(CCc3ccccc3)C2c2ccc(Br)cc2)cc1OC (stereo unspecified) | 4.22 | 4.38 |  |  | 
8 | COc1ccc(C2C(C(=O)c3ccc(Br)cc3)=C(O)C(=O)N2c2cc(C(C)(C)C)on2)cc1OC (stereo unspecified) | 4.35 | 4.37 |  |  | 
9 | COc1ccc(OC)c(C(=O)C2=C(O)C(=O)N(CCCCCC(=O)O)C2c2ccc(Cl)cc2)c1 (stereo unspecified) | 4.06 | 4.40 | 5.00 | < 4.00 | > 10
10 | CCOc1ccc(C(=O)C2=C(O)C(=O)N(c3nccs3)C2c2ccc(OC)cc2)cc1 (stereo unspecified) | < 4.00 | 4.05 |  |  | 
11 | CCOc1ccc(C(=O)C2=C(O)C(=O)N(c3nccs3)C2c2ccc(O)c(OC)c2)cc1 (stereo unspecified) | 4.24 | 4.52 |  |  | 
12 | CCOC(=O)c1sc(N2C(=O)C(O)=C(C(=O)c3ccccc3)C2c2ccc(F)cc2)nc1C (stereo unspecified) | 4.36 | 4.68 |  |  | 
13 | Cc1ccc(C(=O)C2=C(O)C(=O)N(CCCn3ccnc3)C2c2ccc(Cl)cc2)cc1 (stereo unspecified) | 4.03 | 4.17 |  |  | 
14 | O=C(C1=C(O)C(=O)N(c2nc3ccccc3s2)C1c1ccc2c(c1)OCO2)c1ccccc1 (stereo unspecified) | 4.24 | 4.68 |  |  | 
15 | CCOc1ccc(C(=O)C2=C(O)C(=O)N(c3nnc(C)s3)C2c2ccc(F)cc2)cc1 (stereo unspecified) | < 4.00 | < 4.00 |  |  | 
16 | CCOC(=O)c1sc(N2C(=O)C(O)=C(C(=O)c3ccc(C)cc3)C2c2ccc(F)cc2)nc1C (stereo unspecified) | < 4.00 | 4.48 |  |  | 
17 | Cc1ccc(C(=O)C2=C(O)C(=O)N(c3nccs3)C2c2ccc(Cl)cc2)cc1 (stereo unspecified) | 4.25 | 4.41 |  |  | 
18 | Cc1ccc(C(=O)C2=C(O)C(=O)N(c3nccs3)C2c2ccc(F)cc2)cc1 (stereo unspecified) | < 4.00 | 4.11 |  |  | 
